The text below walks through data of patent US11254668B2, “Pyrazolo[1,5-A]pyrazin-4-yl and related derivatives” (Pfizer Inc., priority 2017, dated 2022).

Holding throughout (format): biochemical
For one test, the target named is JAK1 (Homo sapiens (Human), UniProt P23458). The test is described as follows: JAK Caliper Enzyme Assay at 1 mM ATP, JAK1. In outline: (§1)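 IC50 (nM) derived from percent conversion of fluorescently labelled peptide, measured by Caliper LabChip mobility-shift separation after EDTA stop. Each JAK family kinase domain (human, recombinant) run at 1 mM ATP and room temperature, conditions set to 20-30% product; DMSO wells define uninhibited baseline.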

In another test the target is TYK2 (Homo sapiens (Human), UniProt P29597). The experiment in a line: JAK Caliper Enzyme Assay at 1 mM ATP, TYK2. In outline:
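Recombinant human kinase domains phosphorylate a fluorescent synthetic peptide at 1 mM ATP and room temperature, with enzyme level and time tuned to 20–30% conversion before an EDTA stop. Microfluidic mobility-shift separation gives percent product from peak heights. Percent effect against plate controls (DMSO baseline) is plotted versus compound concentration.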

A further test has as its target JAK3 (Homo sapiens (Human), UniProt P52333). The test is described as follows: JAK Caliper Enzyme Assay at 1 mM ATP, JAK3. In outline: as §1
For a further test, the target named is JAK2 (Homo sapiens (Human), UniProt O60674). The test is described as follows: JAK Caliper Enzyme Assay at 1 mM ATP, JAK2. As for the experimental part:
Compounds of the invention were evaluated by in vitro methods to determine their respective ability to inhibit the JAK kinases (TYK2, JAK1, JAK2, JAK3).
The human JAK inhibitory activity was determined by using a microfluidic assay to monitor phosphorylation of a synthetic peptide by the recombinant human kinase domain of each of the four members of the JAK family, JAK1, JAK2, JAK3 and TYK2. […] Each assay condition was optimized for enzyme concentration and room temperature incubation time to obtain a conversion rate of 20% to 30% phosphorylated peptide product. Reactions were terminated by the addition of stop buffer containing EDTA. Utilizing the LabChip 3000 mobility shift technology (Caliper Life Science), each assay reaction was sampled to determine the level of phosphorylation. This technology is separation-based, allowing direct detection of fluorescently labeled substrates and products. Separations are controlled by a combination of vacuum pressure and electric field strength optimized for each peptide substrate.
JAK Caliper Enzyme Assay at 1mM ATP
Compounds were added to a 384-well plate.
The data was collected using the HTS Well Analyzer software from Caliper Life Sciences. The data output for data analysis is the percent product converted calculated on peak height (Equation 1). % product converted=100*((product)/(product+substrate)) Equation 1: […]
The percent effect at each compound concentration was calculated based on the positive and negative control well contained within each assay plate (Equation 2). […] The negative control wells contained DMSO alone (at the same concentration as the compound wells) that was used to set the baseline activity in the assay (i.e., uninhibited JAK1, JAK2, JAK3 or TYK2). % effect=100*([…](positive control-negative control)) Equation 2: […]
The percent effect was plotted against the compound concentration compound.

pIC50: −log10 of the molar value.

Sequence of JAK2 (O60674 849-1124): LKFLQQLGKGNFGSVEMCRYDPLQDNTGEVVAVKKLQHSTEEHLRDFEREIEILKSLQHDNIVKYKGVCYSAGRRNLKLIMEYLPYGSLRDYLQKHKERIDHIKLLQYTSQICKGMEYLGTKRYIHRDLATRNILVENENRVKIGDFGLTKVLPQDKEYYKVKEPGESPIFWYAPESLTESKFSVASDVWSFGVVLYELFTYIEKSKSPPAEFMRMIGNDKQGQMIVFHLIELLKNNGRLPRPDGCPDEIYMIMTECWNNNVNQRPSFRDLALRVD
Sequence of JAK3 (P52333 822-1111): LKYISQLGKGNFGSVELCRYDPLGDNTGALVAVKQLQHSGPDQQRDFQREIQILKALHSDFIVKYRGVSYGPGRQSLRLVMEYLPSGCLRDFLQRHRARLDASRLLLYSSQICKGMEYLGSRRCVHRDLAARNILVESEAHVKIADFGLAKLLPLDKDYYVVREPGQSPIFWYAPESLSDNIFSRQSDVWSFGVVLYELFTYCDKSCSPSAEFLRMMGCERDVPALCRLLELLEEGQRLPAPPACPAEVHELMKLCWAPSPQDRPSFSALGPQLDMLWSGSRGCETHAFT
Sequence of JAK1 (P23458 875-1153): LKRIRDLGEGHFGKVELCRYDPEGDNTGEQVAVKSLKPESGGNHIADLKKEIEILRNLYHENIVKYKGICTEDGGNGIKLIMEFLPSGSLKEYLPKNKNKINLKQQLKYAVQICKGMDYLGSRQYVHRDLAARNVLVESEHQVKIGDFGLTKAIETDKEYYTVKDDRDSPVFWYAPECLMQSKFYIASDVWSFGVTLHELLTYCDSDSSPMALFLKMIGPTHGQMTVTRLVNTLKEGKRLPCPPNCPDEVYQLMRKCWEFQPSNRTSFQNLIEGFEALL
Sequence of TYK2 (P29597 897-1176): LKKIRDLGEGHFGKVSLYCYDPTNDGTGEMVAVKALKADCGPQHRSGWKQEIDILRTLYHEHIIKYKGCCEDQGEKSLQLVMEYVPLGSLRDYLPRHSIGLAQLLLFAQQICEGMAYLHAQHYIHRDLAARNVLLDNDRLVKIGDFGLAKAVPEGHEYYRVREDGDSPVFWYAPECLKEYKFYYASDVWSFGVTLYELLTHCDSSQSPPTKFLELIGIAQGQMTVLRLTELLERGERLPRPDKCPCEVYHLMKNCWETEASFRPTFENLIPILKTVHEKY

On to `CC(C)(O)[C@H]1C[C@@](CC#N)(n2ccc(-c3nc(-c4cc[nH]n4)cc4ncccc34)n2)C1` [Example 40, [cis-3-(2-hydroxpropan-2-yl)-1-{3-[7-(1H-pyrazol-3-yl)-1,6-naphthyridin-5-yl]-1H-pyrazol-1-yl}cyclobutyl]acetonitrile], for which the pIC50 on JAK1 was 5.14; on TYK2 it was 6.14; at JAK3, under 5.00; on JAK2 it was 5.34.
On the same counts, the results for `Cc1cc(-c2cc3ncccc3c(-c3ccn([C@]4(CC#N)C[C@@H](C#N)C4)n3)n2)n[nH]1` [Example 43, trans-3-(cyanomethyl)-3-{3-[7-(5-methyl-1H-pyrazol-3-yl)-1,6-naphthyridin-5-yl]-1H-pyrazol-1-yl}cyclobutanecarbonitrile] are 6.30, 7.85, under 5.00 and 7.04.
Take `Cc1cc(-c2cc3ncccc3c(-c3ccn([C@]4(CC#N)C[C@H](C#N)C4)n3)n2)n[nH]1` [Example 44, cis-3-(cyanomethyl)-3-{3-[7-(5-methyl-1H-pyrazol-3-yl)-1,6-naphthyridin-5-yl]-1H-pyrazol-1-yl}cyclobutanecarbonitrile]: the pIC50 on JAK1 was 7.18; at TYK2, 8.15; at JAK3, 5.54; on JAK2, 7.74.
As to `Cc1cc(-c2cc3ncccc3c(-c3ccn([C@]4(CC#N)C[C@](C)(C#N)C4)n3)n2)n[nH]1` [Example 45, cis-3-(cyanomethyl)-1-methyl-3-{3-[7-(5-methyl-1H-pyrazol-3-yl)-1,6-naphthyridin-5-yl]-1H-pyrazol-1-yl}cyclobutanecarbonitrile], the pIC50 was 6.13 on JAK1, 7.48 at TYK2, under 5.00 on JAK3 and 6.90 at JAK2.
Take `Cc1cc(-c2cc3ncccc3c(-c3ccn([C@]4(CC#N)C[C@@](C)(C#N)C4)n3)n2)n[nH]1` [Example 46, trans-3-(cyanomethyl)-1-methyl-3-{3-[7-(5-methyl-1H-pyrazol-3-yl)-1,6-naphthyridin-5-yl]-1H-pyrazol-1-yl}cyclobutanecarbonitrile]: the pIC50 at JAK1 is 5.01; at TYK2 it was 6.06; at JAK3, under 5.00; on JAK2, 5.56.
As to `CCN1CC(CC#N)(n2ccc(-c3nc(-c4cc(CO)[nH]n4)cc4ncccc34)n2)C1` [Example 47, [1-ethyl-3-(3-{7-[5-(hydroxymethyl)-1H-pyrazol-3-yl]-1,6-naphthyridin-5-yl}-1H-pyrazol-1-yl)azetidin-3-yl]acetonitrile], the pIC50 on JAK1 was 5.11; on TYK2, 6.60; on JAK3 it was under 5.00; at JAK2 it was 5.71.
The matching figures for `N#CCC1(n2ccc(-c3nc(-c4cc(CO)[nH]n4)cc4ncccc34)n2)CC(C#N)C1` (stereo not drawn) [Example 48, trans-3-(cyanomethyl)-3-(3-{7-[5-(hydroxymethyl)-1H-pyrazol-3-yl]-1,6-naphthyridin-5-yl}-1H-pyrazol-1-yl)cyclobutanecarbonitrile]: 6.53, 7.82, under 5.00 and 7.14.
On the same counts, the results for `N#CC[C@]1(n2ccc(-c3nc(-c4cc(CO)[nH]n4)cc4ncccc34)n2)C[C@@H](C#N)C1` [Example 49, cis-3-(cyanomethyl)-3-(3-{7-[5-(hydroxymethyl)-1H-pyrazol-3-yl]-1,6-naphthyridin-5-yl}-1H-pyrazol-1-yl)cyclobutanecarbonitrile] are 7.38, 8.15, 5.64 and 7.80.
With `CO[C@H]1C[C@](CC#N)(n2ccc(-c3nc(-c4cc(CO)n[nH]4)cc4ncccc34)n2)C1` [Example 50, [trans-1-(3-{7-[3-(hydroxymethyl)-1H-pyrazol-5-yl]-1,6-naphthyridin-5-yl}-1H-pyrazol-1-yl)-3-methoxycyclobutyl]acetonitrile], the pIC50 is 5.56 at JAK1, 7.23 at TYK2, under 5.00 at JAK3 and 6.06 at JAK2.
Take `CO[C@H]1C[C@@](CC#N)(n2ccc(-c3nc(-c4cc(CO)n[nH]4)cc4ncccc34)n2)C1` [Example 51, [cis-1-(3-{7-[3-(hydroxymethyl)-1H-pyrazol-5-yl]-1,6-naphthyridin-5-yl}-1H-pyrazol-1-yl)-3-methoxycyclobutyl]acetonitrile]: the pIC50 on JAK1 was 5.72; on TYK2, 7.35; on JAK3 it was under 5.00; at JAK2, 6.29.
On the same counts, the results for `CO[C@H]1C[C@@](CC#N)(n2ccc(-c3nc(-c4cc(N)[nH]n4)cc4ncccc34)n2)C1` [Example 52, (cis-1-{3-[7-(5-amino-1H-pyrazol-3-yl)-1,6-naphthyridin-5-yl]-1H-pyrazol-1-yl}-3-methoxycyclobutyl)acetonitrile] are 6.42, 7.72, under 5.00 and 6.63.
For the compound `CO[C@H]1C[C@](CC#N)(n2ccc(-c3nc(-c4cc(N)[nH]n4)cc4ncccc34)n2)C1` [Example 53, (trans-1-{3-[7-(5-amino-1H-pyrazol-3-yl)-1,6-naphthyridin-5-yl]-1H-pyrazol-1-yl}-3-methoxycyclobutyl)acetonitrile], the pIC50 on JAK1 was 6.18; at TYK2, 7.59; at JAK3, under 5.00; on JAK2, 6.40.
As for `Cn1nccc1-c1cc2ncccc2c(-c2ccn(C3(CC#N)CN(CC(F)(F)F)C3)n2)n1` [Example 54, [3-{3-[7-(1-methyl-1H-pyrazol-5-yl)-1,6-naphthyridin-5-yl]-1H-pyrazol-1-yl}-1-(2,2,2-trifluoroethyl)azetidin-3-yl]acetonitrile], the pIC50 at JAK1 was 5.64; at TYK2, 6.67; on JAK3, under 5.00; at JAK2 it was 5.68.
The matching figures for `Cn1ccc(-c2cc3ncccc3c(-c3ccn(C4(CC#N)CN(CC(F)(F)F)C4)n3)n2)n1` [Example 55, [3-{3-[7-(1-methyl-1H-pyrazol-3-yl)-1,6-naphthyridin-5-yl]-1H-pyrazol-1-yl}-1-(2,2,2-trifluoroethyl)azetidin-3-yl]acetonitrile]: 5.05, 6.81, under 5.00 and 5.59.
The matching figures for `CS(=O)(=O)N1CC(CC#N)(n2ccc(-c3nc(-c4ccn(C5COC5)n4)cc4ncccc34)n2)C1` [Example 56, [1-(methylsulfonyl)-3-(3-{7-[1-(oxetan-3-yl)-1H-pyrazol-3-yl]-1,6-naphthyridin-5-yl}-1H-pyrazol-1-yl)azetidin-3-yl]acetonitrile]: under 5.00, 6.65, under 5.00 and 5.83.
On the same counts, the results for `N#CCC1(n2ccc(-c3nc(-c4ccn(C5COC5)n4)cc4ncccc34)n2)CN(CC(F)(F)F)C1` [Example 57, [3-(3-{7-[1-(oxetan-3-yl)-1H-pyrazol-3-yl]-1,6-naphthyridin-5-yl}-1H-pyrazol-1-yl)-1-(2,2,2-trifluoroethyl)azetidin-3-yl]acetonitrile] are under 5.00, 6.59, under 5.00 and 5.63.
Turning to `Cc1cc(-c2cc3ncccc3c(-c3ccn([C@]4(CC#N)C[C@@H](C#N)C4)n3)n2)nn1C` [Example 58, trans-3-(cyanomethyl)-3-{3-[7-(1,5-dimethyl-1H-pyrazol-3-yl)-1,6-naphthyridin-5-yl]-1H-pyrazol-1-yl}cyclobutanecarbonitrile], the pIC50 at JAK1 is 5.13; on TYK2 it was 7.47; at JAK3, under 5.00; on JAK2, 6.29.
On to `Cc1cc(-c2cc3ncccc3c(-c3ccn([C@]4(CC#N)C[C@H](C#N)C4)n3)n2)nn1C` [Example 59, cis-3-(cyanomethyl)-3-{3-[7-(1,5-dimethyl-1H-pyrazol-3-yl)-1,6-naphthyridin-5-yl]-1H-pyrazol-1-yl}cyclobutanecarbonitrile], for which the pIC50 at JAK1 was 6.06; on TYK2, 7.80; at JAK3, under 5.00; at JAK2, 7.04.

For orientation: pIC50 means −log10 of the IC50, conventionally taken in molar units.
